Results taken from BindingDB's records for patent WO2022101377 (Boehringer Ingelheim International, 2022).

What follows are compounds tested against Platelet-activating factor receptor (Homo sapiens, UniProt P25105) (assay: EVALUATION OF THE INHIBITION OF PAFR ACTIVATION).
Procedure: USING AN ENDPOINT ASSAY HEK293 cells overexpressing human PAFR (produced in-house) are seeded into a Poly-D-Lysine coated 384 well white cell culture microtiter assay plate with lid (15.000 cells per well). Subsequently, the plates are incubated over night at 37 °C/5% CO2. On the next day, cells are being washed and subsequently, various concentrations of the test compounds (compounds in 100% DMSO; final concentratrion of DMSO in wells is 1%) are added to the assay plate via Echo 555 acoustic liquid handler. Plates are then incubated with lid for 90 minutes at 37 °C/5% CO2. Thereafter, PAF ligand (Cayman Chemical Company, Item no.: 60900) is added at a final concentration of 11 nM. Plates are then incubated with lid for 60 minutes at 37 °C/5% CO2. Then, 5 µl per well of Anti-IP1-Antibody-Cryptate solution and 5 µL per well of IP1-d2 solution are added to all wells of the plate and the plate is incubated for another 60 minutes light protected at room temperature. The emissions at 620 nm and 665 nm (Excitation wavelength: 320 nm) are measured using an Envision Reader (PerkinElmer).

Platelet-activating factor receptor, sequence (P25105 whole entry): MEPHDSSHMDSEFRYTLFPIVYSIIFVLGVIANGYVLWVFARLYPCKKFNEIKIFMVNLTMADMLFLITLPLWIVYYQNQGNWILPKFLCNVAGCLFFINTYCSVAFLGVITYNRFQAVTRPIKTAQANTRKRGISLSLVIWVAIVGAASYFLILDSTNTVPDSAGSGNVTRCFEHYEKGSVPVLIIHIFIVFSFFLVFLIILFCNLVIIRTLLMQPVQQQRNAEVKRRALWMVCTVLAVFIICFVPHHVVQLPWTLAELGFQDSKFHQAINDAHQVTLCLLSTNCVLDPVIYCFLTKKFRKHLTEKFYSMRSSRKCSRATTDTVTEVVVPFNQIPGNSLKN

Row | SMILES | IC50
1 | Cc1nnc2n1-c1sc3c(c1C(c1ccccc1C1CC1)NC2)CC(C(=O)N1CCOCC1)C3 (stereo unspecified) [WO2022101377, Example 59] | > 322 nM
2 | Cc1nnc2n1-c1sc3c(c1C(c1ccccc1Cl)NC2)C[C@H](C(=O)N1CCCC2(CC2)C1)C3 (stereo partly specified) [WO2022101377, Example 66] | 2.7 nM
3 | COc1ccccc1C1NCc2nnc(C)n2-c2sc3c(c21)CC(C(=O)N1CCOCC1)C3 (stereo unspecified) [WO2022101377, Example 54] | > 322 nM
4 | Cc1nnc2n1-c1sc3c(c1C(c1ccccc1)NC2)CC(C(=O)N1CCOCC1)C3 (stereo unspecified) [WO2022101377, Example 74] | 102 nM
5 | Cc1nnc2n1-c1sc3c(c1C(c1cc(F)cc(F)c1)NC2)CC(C(=O)N1CCOCC1)C3 (stereo unspecified) [WO2022101377, Example 58] | > 322 nM
6 | Cc1nnc2n1-c1sc3c(c1C(c1ccccc1CO)NC2)CC(C(=O)N1CCOCC1)C3 (stereo unspecified) [WO2022101377, Example 60] | > 322 nM
7 | CCCc1nnc2n1-c1sc3c(c1C(c1ccccc1Cl)NC2)CC(C(=O)N1CCOCC1)C3 (stereo unspecified) [WO2022101377, Example 80] | 110 nM

Second part, the compound after the results:

Row | IC50 | SMILES
8 | > 322 nM | Cc1nnc2n1-c1sc3c(c1C(c1ccccc1C(F)(F)F)NC2)CC(C(=O)N1CCOCC1)C3 (stereo unspecified) [WO2022101377, Example 56]
9 | > 322 nM | Cc1nnc2n1-c1sc3c(c1C(c1ccccc1O)NC2)CC(C(=O)N1CCOCC1)C3 (stereo unspecified) [WO2022101377, Example 61]
10 | 235 nM | CSc1ccccc1C1NCc2nnc(C)n2-c2sc3c(c21)CC(C(=O)N1CCOCC1)C3 (stereo unspecified) [WO2022101377, Example 79]
11 | > 568 nM | Cc1ccccc1[C@H]1NCc2nnc(C)n2-c2sc3c(c21)C[C@H](C(=O)N1CCOCC1)C3 [WO2022101377, Example 63]
